Structures are written as SMILES.

The target in this assay is GST-tagged recombinant human RIP2 (Homo sapiens (Human), UniProt O43353). As to the kind of experiment: RIP2 Kinase Assay (ADP-Glo). To be noted: in vitro kinase activity, ATP 25 μM. In kind it is biochemical. The protocol: GST-tagged recombinant human RIP2 (25 ng) is incubated with 5 μL of compounds (0.5% DMSO), 5 μL of MBP (0.5 μg/μl) and 5 μL of ATP (25 μM) in buffer (40 mM Tris, 7.5; 20 mM MgCl2; 0.1 mg/ml BSA; 50 μM DTT). The assay was started by incubating the reaction mixture in a 96-well plate at 30° C. for 60 minutes. After the incubation, 25 μL ADP-Glo reagent was added, and the reaction was incubated at 30° C. for 40 minutes to stop the reaction and degrade residual ATP. The ADP product was then converted to ATP by adding 50 μL per well of detection reagent. Luminescence was detected after 30 minutes room temperature incubation with the Molecular device I3X plate reader. The IC50 values were calculated from a series of percent inhibition values determined at a range of inhibitor concentration using software routines as implemented in the GraphPad Prism 7 software and SigmaPlot 13.0.
Chain of GST-tagged recombinant human RIP2 (O43353 whole entry): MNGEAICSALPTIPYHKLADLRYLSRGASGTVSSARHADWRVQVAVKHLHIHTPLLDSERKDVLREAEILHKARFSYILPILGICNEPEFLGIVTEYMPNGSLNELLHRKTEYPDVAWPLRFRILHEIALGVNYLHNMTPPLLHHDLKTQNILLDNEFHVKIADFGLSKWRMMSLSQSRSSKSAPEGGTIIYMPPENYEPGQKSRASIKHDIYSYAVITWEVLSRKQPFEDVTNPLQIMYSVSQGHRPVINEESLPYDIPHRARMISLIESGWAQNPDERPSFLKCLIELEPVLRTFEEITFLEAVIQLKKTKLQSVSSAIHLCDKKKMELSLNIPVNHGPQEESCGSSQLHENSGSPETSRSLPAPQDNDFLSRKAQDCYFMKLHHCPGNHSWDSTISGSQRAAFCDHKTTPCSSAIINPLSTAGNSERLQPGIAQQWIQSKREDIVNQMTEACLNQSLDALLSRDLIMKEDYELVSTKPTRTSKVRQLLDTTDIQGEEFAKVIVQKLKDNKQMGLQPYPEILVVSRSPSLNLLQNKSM
A general note: In ADP-Glo the light output rises with the ADP produced.
Broadly, the IC50 is the concentration needed to halve the response being measured. As for `Nc1nc2ccc(Br)cn2c1C(=O)C1CC1` [Example 1, (2-amino-6-bromoimidazo[1,2-a]pyridin-3-yl)(cyclopropyl)methanone], the IC50 is above 1000 nM.

Take `Cc1ccncc1-c1ccc2nc(N)c(C(=O)C3CC3)n2c1` [Example 2]: the IC50 lay in the range of 101 to 500 nM.

On to `Nc1nc2ccc(Br)cn2c1C(=O)[C@@H]1C[C@@H]1F` [Example 4], for which the IC50 was above 1000 nM.

As to `CC(=O)c1c(N)nc2ccc(-c3cccc(F)c3C)cn12` [Example 6, 1-(2-amino-6-(3-fluoro-2-methylphenyl)imidazo[1,2-a]pyridin-3-yl)ethan-1-one], the concentration for half-maximal inhibition (IC50) was 101 to 500 nM.

In the case of `Cc1cc(F)ccc1-c1ccc2nc(N)c(C(=O)[C@@H]3C[C@@H]3F)n2c1` [Example 7], the IC50 is 101 to 500 nM.

`Nc1nc2ccc(-c3cccs3)cn2c1C(=O)[C@@H]1C[C@@H]1F` [Example 8]: the IC50 was in the range of 101 to 500 nM.

For `Nc1nc2ccc(-c3cccc(F)c3C(F)(F)F)cn2c1C(=O)[C@@H]1C[C@@H]1F` [Example 10], the IC50 was above 1000 nM.

Consider `Cc1cccc(-c2ccc3nc(N)c(C(=O)[C@@H]4C[C@@H]4F)n3c2)c1C` [Example 11], for which the IC50 is 1 to 100 nM.

Regarding `Cc1c(F)cccc1-c1ccc2nc(N)c(C(=O)c3ccccn3)n2c1` [Example 12], the half-maximal inhibitory concentration (IC50) fell in the range of 1 to 100 nM.

As for `Cc1c(F)cccc1-c1ccc2nc(N)c(C(=O)c3ccccc3)n2c1` [Example 13], the IC50 is 101 to 500 nM.

Consider `Cc1c(F)cccc1-c1ccc2nc(N)c(C(=O)C3CC3)n2c1` [Example 14], for which the IC50 was in the range of 1 to 100 nM.

For `Cc1ccc(F)cc1-c1ccc2nc(N)c(C(=O)[C@@H]3C[C@@H]3F)n2c1` [Example 15], the IC50 was in the range of 1 to 100 nM.

For the compound `Cc1ccc(C)c(-c2ccc3nc(N)c(C(=O)[C@@H]4C[C@@H]4F)n3c2)c1` [Example 16], the IC50 lay in the range of 101 to 500 nM.

As to `Cc1ccc(-c2ccc3nc(N)c(C(=O)[C@@H]4C[C@@H]4F)n3c2)c(C)c1` [Example 17], the IC50 was in the range of 101 to 500 nM.

As to `Cc1cccc(F)c1-c1ccc2nc(N)c(C(=O)[C@@H]3C[C@@H]3F)n2c1` [Example 18], the IC50 was in the range of 101 to 500 nM.

For `Cc1c(-c2ccc3nc(N)c(C(=O)[C@@H]4C[C@@H]4F)n3c2)cccc1C(F)(F)F` [Example 19], the IC50 fell in the range of 101 to 500 nM.

Regarding `Cc1c(F)cccc1-c1ccc2nc(N)c(C(=O)C3CCC3)n2c1` [Example 20], the half-maximal inhibitory concentration (IC50) lay within 101 to 500 nM.

As for `Cc1c(F)cccc1-c1ccc2nc(N)c(C(=O)c3cnn(C)c3)n2c1` [Example 21], the 50% inhibitory concentration (IC50) fell in the range of 101 to 500 nM.

Turning to `Cc1c(F)cccc1-c1ccc2nc(N)c(C(=O)C(C)(C)C)n2c1` [Example 22], the IC50 was 101 to 500 nM.

Turning to `CCCCC(=O)c1c(N)nc2ccc(-c3cccc(F)c3C)cn12` [Example 23], the IC50 lay in the range of 501 to 1000 nM.

`Cc1c(F)cccc1-c1ccc2nc(NCCN(C)C)c(C(=O)[C@@H]3C[C@@H]3F)n2c1` [Example 24, (2-((2-(dimethylamino)ethyl)amino)-6-(3-fluoro-2-methylphenyl)imidazo[1,2-a]pyridin-3-yl)((1S,2S)-2-fluorocyclopropyl)methanone]: the IC50 was above 1000 nM.

Regarding `Cc1cc(F)ccc1-c1ccc2nc(N)c(C(=O)[C@H]3C[C@@H]3F)n2c1` [Example 25], the IC50 was in the range of 101 to 500 nM.

As for `Cc1cccc(F)c1-c1ccc2nc(N)c(C(=O)[C@H]3C[C@@H]3F)n2c1` [Example 26], the IC50 fell in the range of 101 to 500 nM.

Regarding `Nc1nc2ccc(-c3ccco3)cn2c1C(=O)[C@@H]1C[C@@H]1F` [Example 27], the IC50 was above 1000 nM.

Turning to `Cc1scnc1-c1ccc2nc(N)c(C(=O)[C@@H]3C[C@@H]3F)n2c1` [Example 28, (2-amino-6-(5-methylthiazol-4-yl)imidazo[1,2-a]pyridin-3-yl)((1S,2S)-2-fluorocyclopropyl)methanone], the IC50 fell in the range of 101 to 500 nM.

Consider `Cc1ccsc1-c1ccc2nc(N)c(C(=O)[C@@H]3C[C@@H]3F)n2c1` [Example 29], for which the IC50 lay in the range of 101 to 500 nM.

Regarding `Nc1nc2ccc(-c3cncs3)cn2c1C(=O)[C@@H]1C[C@@H]1F` [Example 30], the IC50 was above 1000 nM.

As to `Cc1c(-c2ccc3nc(N)c(C(=O)[C@@H]4C[C@@H]4F)n3c2)ccc(F)c1F` [Example 31], the IC50 is 101 to 500 nM.

As to `CC(=O)Nc1nc2ccc(-c3cccc(F)c3C)cn2c1C(C)=O` [Example 33, N-(3-acetyl-6-(3-fluoro-2-methylphenyl)imidazo[1,2-a]pyridin-2-yl)acetamide], the IC50 was above 1000 nM.

`Nc1nc2ccc(-c3ccccc3Cl)cn2c1C(=O)[C@@H]1C[C@@H]1F` [Example 34]: the IC50 is 101 to 500 nM.

Regarding `Cc1c(F)cccc1-c1ccc2nc(N)c(C(=O)[C@H]3C[C@H]3F)n2c1` [Example 35], the IC50 was 101 to 500 nM.

Consider `Cc1c(F)cccc1-c1ccc2nc(N)c(C(=O)C3CCN3C(=O)OC(C)(C)C)n2c1` (centres unmarked) [Example 36], for which the IC50 is above 1000 nM.

Regarding `CC(=O)c1c(N(C(C)=O)C(C)=O)nc2ccc(-c3cccc(F)c3C)cn12` [Example 37, N-acetyl-N-(3-acetyl-6-(3-fluoro-2-methylphenyl)imidazo[1,2-a]pyridin-2-yl)acetamide], the IC50 was above 1000 nM.

As for `CC(=O)c1ccc(-c2ccc3nc(N)c(C(=O)[C@@H]4C[C@@H]4F)n3c2)c(C)c1` [Example 38], the IC50 is above 1000 nM.

Regarding `Nc1nc2ccc(-c3ccc(N4CCOCC4)cc3)cn2c1C(=O)[C@@H]1C[C@@H]1F` [Example 39], the IC50 was above 1000 nM.

In the case of `Cc1c(F)cccc1-c1ccc2nc(N)c(C(=O)[C@@H]3C[C@H]3F)n2c1` [Example 42], the IC50 fell in the range of 101 to 500 nM.

Take `Cc1c(F)cccc1-c1ccc2nc(N)c(C(=O)[C@H]3C[C@@H]3F)n2c1` [Example 43]: the IC50 lay within 101 to 500 nM.

Regarding `Cc1ccc(C(F)(F)F)cc1-c1ccc2nc(N)c(C(=O)[C@@H]3C[C@@H]3F)n2c1` [Example 45], the IC50 was in the range of 101 to 500 nM.

As to `Cc1c(F)cccc1-c1ccc2nc(N)c(C(=O)C3CC(F)(F)C3)n2c1` [Example 46], the IC50 lay within 501 to 1000 nM.

With `Cc1c(F)cccc1-c1ccc2nc(N)c(C(=O)[C@@H]3CC3(F)F)n2c1` [Example 47], the IC50 lay within 101 to 500 nM.

Turning to `Cc1c(F)cccc1-c1ccc2nc(N)c(C(=O)C3CCN3)n2c1` (centres unmarked) [Example 48], the IC50 was 101 to 500 nM.

With `Cc1c(F)cccc1-c1ccc2nc(N)c(C(=O)C3CN(C(=O)OC(C)(C)C)C3)n2c1` [Example 49], the IC50 is above 1000 nM.

With `Cc1c(F)cccc1-c1ccc2nc(N)c(C(=O)C3CNC3)n2c1` [Example 50], the IC50 fell in the range of 1 to 100 nM.

In the case of `Nc1nc2ccc(-c3ccc(N4CCNCC4)cc3)cn2c1C(=O)[C@@H]1C[C@@H]1F` [Example 52], the IC50 was in the range of 501 to 1000 nM.

For the compound `CN1CCN(c2ccc(-c3ccc4nc(N)c(C(=O)[C@@H]5C[C@@H]5F)n4c3)cc2)CC1` [Example 53], the IC50 is 101 to 500 nM.

As to `CNc1nc2ccc(-c3cccc(F)c3C)cn2c1C(=O)[C@@H]1C[C@@H]1F` [Example 54, (6-(3-fluoro-2-methylphenyl)-2-(methylamino)imidazo[1,2-a]pyridin-3-yl)((1S,2S)-2-fluorocyclopropyl)methanone], the IC50 is above 1000 nM.

Turning to `Cc1c(F)cccc1-c1ccc2nc(N(C)C)c(C(=O)[C@H]3C[C@@H]3F)n2c1` [Example 55, (2-(dimethylamino)-6-(3-fluoro-2-methylphenyl)imidazo[1,2-a]pyridin-3-yl)((1R,2S)-2-fluorocyclopropyl)methanone], the IC50 is above 1000 nM.

Values taken from US11744824B2, “2-amino-3-carbonyl imidazopyridine and pyrazolopyridine compounds” (1ST Biotherapeutics, Inc., priority 2020, dated 2023).
